Values joined by “and” are separate entries in the source; they are usually repeats but may differ in a detail not shown here. Equal entries are not always repeated.
Experiments:
Assay type in all cases: biochemical
[1] = Endotoxin removal by sonicated CaSt suspension stored 1 month; settings: listed as CaSt suspension; for Percent Endotoxin Removal(15 min/30 min): sonicated suspension stored 1 month
Procedure: 10 ml of LRW water (LAL reagent water, contains no endotoxin) containing 0.04 g of CaSt suspension was sonicated using Misonix Probe Sonicator, Model: S-4000, Amplitude: 30, Time: 30 seconds and then the suspension was stored for 1 month at ambient temperature. Then 1 ml of the above suspension was added to 10 ml endotoxin containing water SRW and the resulting endotoxin concentrations in the combined solution measured after 15 min and 30 min, with the results presented in Table 14.

[2] = Suture testing in ethyl acetate containing CaSt: detection of LPS on suture; settings: LPS-contaminated suture submerged in Ethyl Acetate w/ 5% Calcium Stearate, vortexed 10 seconds
Procedure: An absorbable VICRYL® (Polyglactin 910) suture (Size 1, Length: 27in) made of a copolymer made from 90% glycolide and 10% L-lactide was exposed to a solution containing LPS (endotoxin) (9 Strands of Vicryl suture were immersed in tubing with endotoxin solution (SRW, Concentration: 3980 EU/mL) for 10 minutes at a time at ambient temperature. The sutures were air dried for 20 minutes in a vented chemical hood and then placed in round bottom and dried The suture was then immersed into Ethyl Acetate (EtAc) containing CaSt, vortexed briefly for 10 seconds, dried for 20 minutes in a vented chemical hood, and extracted in endotoxin free water at ambient temperature. The suture extracted in endotoxin free water (LRW) was then tested for LPS using the Kinetic Chromogenic Method for Endotoxin Quantitation, Charles River Laboratories, Charleston S.C.

[3] = Detection of LPS in water in presence of CaSt and EDTA and Tween 20; settings: 5mL, 8330 EU spiked; for Percent detected Endotoxin: 60 min
Procedure: Further testing was performed with addition of EDTA and Polysorbate 20 reagents to verify permanent removal of LPS/endotoxin activity, by adding EDTA and Polysorbate 20 to the extraction solutions to test for potential recovery of endotoxin activity when introduced to these two substances.
The testing was performed in aqueous solutions with added EDTA and Polysorbate 20, with suspended CaSt present in some solutions in varying quantities. […] The tubes were vortexed for 1 minute and placed in a 37C bath for 1 hour. The tubes were removed from the bath and again vortexed for 1 minute. The solutions were diluted and tested for endotoxin using the Kinetic Chromogenic Method for Endotoxin Quantitation, Charles River Laboratories, Charleston S.C. […] These samples were rigorously vortexed and tested using the Kinetic Chromogenic Method for Endotoxin Quantitation, Charles River Laboratories, Charleston S.C. […]

[4] = Suture testing in aqueous suspension of CaSt: endotoxin detected on LPS-contaminated suture
Procedure: Treatment of sutures in aqueous suspensions of CaSt was performed as follows: Suture used was VICRYL® (Polyglactin 910) suture made of a copolymer made from 90% glycolide and 10% L-lactide, Size 1, 27 inch pieces. […] Endosafe LAL Reagent Water (LRW) was used, manufactured by Charles River Laboratories, Charleston S.C..
Eight strands of suture were placed in tubing with LPS (endotoxin) solution for 10 minutes at a time. The sutures were dried for 20 minutes and then placed in round bottom tubes. Suspensions of 5% by weight CaSt in LAL Reagent Water were prepared. (0.5 g CaSt in 10 mL LRW). One suture was placed in each tube and vortexed in this solution for approximately 10 seconds. The sutures were removed and allowed to dry for 20 minutes and then placed in round bottom tubes. This was done for 3 sutures. Three pieces of suture, serving as the control, were not submerged in any solutions and placed in test tubes. 3 mL of LAL reagent water was added to each test tube, vortexed vigorously for 1 minute, and then placed in a hot water bath at 37°C for 1 hour. They were then removed, vortexed vigorously for 1 minute, diluted, and tested on the MCS system. […] These were also tested for endotoxin on the MCS. Table 4. Detection of LPS after adding CaSt to test tubes containing water spiked with LPS

[5] = Weight of Calcium Stearate 0.007 g
[6] = Weight of Calcium Stearate 0.018 g
[7] = Weight of Calcium Stearate 0.028 g

Compound: CCCCCCCCCCCCCCCCCC(=O)O [Calcium Stearate]
- Endotoxin EU/mL (15 min after addition of CaSt suspension) ([1]; 0.04 g CaSt in 10 ml LRW sonicated, stored 1 month, added to SRW, initial 732.5 EU/mL, 15 min): 372 EU/mL and 362 EU/mL
- Endotoxin EU/mL (30 min after addition of CaSt suspension) ([1]; 0.04 g CaSt in 10 ml LRW sonicated, stored 1 month, added to SRW, initial 732.5 EU/mL, 30 min): 384 EU/mL and 278 EU/mL
- Percent Endotoxin Removal(15 min/30 min) ([1]; 15 min): 49.2% and 50.6%
- Percent Endotoxin Removal(15 min/30 min) ([1]; 30 min): 47.6% and 62.0%
- Endotoxin Detected (EU) [2]: 23.4 EU and 21.78 EU and 25.62 EU
- Endotoxin Detected (EU) [3, 5]: 3995 EU
- Percent detected Endotoxin [3, 5]: 48.0%
- Endotoxin Detected (EU) [3, 6]: 1487.5 EU
- Percent detected Endotoxin [3, 6]: 17.9%
- Endotoxin Detected (EU) [3, 7]: 235 EU
- Percent detected Endotoxin [3, 7]: 2.8%
- Endotoxin Detected (EU) ([4]; Water with 5% Calcium Stearate solution tested after suture removal (samples 4-6)): <1.0 EU
- Average Endotoxin Detected (EU) ([4]; suture submerged in LAL Water w/ 5% Calcium Stearate, samples 4-6): 3.27 EU
- Average Change in Endotoxin Level (%) ([4]; suture submerged in LAL Water w/ 5% Calcium Stearate, vs. sutures not submerged (84 EU)): -96.1%

Reference: patent EP3355943B1, “METHODS AND SYSTEMS FOR TREATING MEDICAL DEVICES AND FLUIDS” (Ethicon, Inc., priority 2015, dated 2017)
